According to article PMC6350621, “Small-molecules that covalently react with a human prolyl hydroxylase – towards activity modulation and substrate capture” (Chemical Communications (Cambridge, England), 2018):

Experiments:
[1] = molecular target: T1, PHD2Δ (deletion of residues 238–250) (Homo sapiens, UniProt Q9GZT9, DEL238-250); assay: Non-denaturing ESI-MS crosslinking, loop deletion variant; format: binding; settings: equimolar Fe(II) and compound, 3 h, 37 °C, 200 V
T1 construct: PHD2_181–426 (hereafter PHD2); His6 (N, cleaved yes); made in house; host or cells: bacterial culture (2x TY, kanamycin, IPTG)
T1 sequence (Q9GZT9 with tags, fused parts or gaps DEL238-250): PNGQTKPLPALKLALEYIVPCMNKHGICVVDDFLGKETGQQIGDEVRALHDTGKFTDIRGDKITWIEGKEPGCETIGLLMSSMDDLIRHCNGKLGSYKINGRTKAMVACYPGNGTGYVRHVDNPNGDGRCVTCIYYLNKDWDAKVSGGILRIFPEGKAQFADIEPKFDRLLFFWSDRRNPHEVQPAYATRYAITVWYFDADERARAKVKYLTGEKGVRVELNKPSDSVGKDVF
Experimental: The site of crosslinking of 3 was investigated using protein variants. First, 3 was incubated with C-terminal truncated PHD2 (PHD2_181–402) and a loop deletion variant (deletion of residues 238–250, PHD2Δ). […] Thus, 3 was incubated with PHD2 constructs truncated at residues 402, 410, 414 and 418. […] Crosslinking experiments with PHD2 R411M implied that R411 is not directly involved in crosslinking (Fig. S11, ESI ^†).
Fig. 3 (A) Non-denaturing ESI-MS data on the flexible loop truncated (top) and C-terminal tail tuncated (bottom) versions of PHD2 in the presence of equimolar Fe(II) and 3 (3 hour incubation, 37 °C. Cone voltage: 200 V). A = [PHD2Δ + Fe], B = [PHD2Δ + Fe + 3], C = [PHD2_181–402 + Fe], D = [PHD2_181–402 + Fe + 3]. (B) MS/MS spectrum of the trypsin derived peptide 403[…]411 crosslinked to 3 identified K408 as the site of crosslinking.

KDM4A = molecular target: T2, KDM4A (Homo sapiens, UniProt O75164); assay: Denaturing MS covalent adduct formation with KDM4A; format: binding; settings: enzyme 20 μM, Fe(II) 30 μM, compound 30 μM, 37 °C, 4 h
T2 sequence (O75164 1-1064): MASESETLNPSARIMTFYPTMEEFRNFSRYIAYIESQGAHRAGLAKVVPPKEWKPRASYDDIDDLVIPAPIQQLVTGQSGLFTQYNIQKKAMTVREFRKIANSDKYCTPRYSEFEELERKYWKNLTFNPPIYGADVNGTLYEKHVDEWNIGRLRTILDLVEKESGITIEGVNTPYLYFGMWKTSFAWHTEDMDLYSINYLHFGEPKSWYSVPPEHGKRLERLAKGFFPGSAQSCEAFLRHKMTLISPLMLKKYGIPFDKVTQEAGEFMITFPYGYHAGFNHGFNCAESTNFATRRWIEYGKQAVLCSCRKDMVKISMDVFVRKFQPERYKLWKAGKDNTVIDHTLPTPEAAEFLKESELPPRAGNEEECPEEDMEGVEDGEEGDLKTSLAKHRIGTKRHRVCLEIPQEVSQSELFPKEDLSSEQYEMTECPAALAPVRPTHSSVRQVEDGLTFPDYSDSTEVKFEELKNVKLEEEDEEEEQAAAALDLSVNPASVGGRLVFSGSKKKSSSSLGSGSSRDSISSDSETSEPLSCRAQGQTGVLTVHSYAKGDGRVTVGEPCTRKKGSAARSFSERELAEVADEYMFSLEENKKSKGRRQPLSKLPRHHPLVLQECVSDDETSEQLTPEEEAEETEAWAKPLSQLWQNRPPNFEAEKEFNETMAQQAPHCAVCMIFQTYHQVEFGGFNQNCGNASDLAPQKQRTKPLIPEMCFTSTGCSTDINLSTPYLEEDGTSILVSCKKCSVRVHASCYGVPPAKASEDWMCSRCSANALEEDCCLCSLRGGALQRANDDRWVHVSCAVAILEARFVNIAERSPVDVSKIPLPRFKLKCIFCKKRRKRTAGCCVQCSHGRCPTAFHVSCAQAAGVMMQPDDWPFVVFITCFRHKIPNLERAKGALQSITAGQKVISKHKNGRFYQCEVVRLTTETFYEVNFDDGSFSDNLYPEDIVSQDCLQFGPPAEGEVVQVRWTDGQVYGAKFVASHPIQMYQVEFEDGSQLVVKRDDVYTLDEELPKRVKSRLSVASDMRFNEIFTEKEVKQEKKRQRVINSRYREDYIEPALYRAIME
Excerpt: Ligands that covalently modify proteins are used for activity-based profiling by functionalisation with an appropriate handle.[20] […] This method for incorporation of a photoreactive group near the active site of a protein to enable substrate capture is complementary to ‘photoreactive site directed mutagenesis’.[21],[22] Azide 7 was designed for use as a tag to allow ‘click’ conjugation with a handle (e.g. biotin) for activity-based profiling, or as a photoreactive aryl azide for substrate capture. […] There is scope for optimisaiton and broader application of the approach described here. […] Work toward the application of 7 and derivatives in protein profiling and substrate capture in cells is ongoing.
HeLa cells were treated with the […]

HIF-1α in HeLa cells = assay: HIF-1α levels in HeLa cells by anti-HIF-1α immunoblotting; settings: 50 or 250 µM, 6 h

crosslinking with loop truncate [1]: Crosslinking was maintained | covalent reaction with KDM4A (KDM4A): did not accrue evidence
Structure (SMILES): C=CC(=O)Nc1cccc(C(=O)NCC(=O)O)c1O [compound 3]
HIF-1α upregulation in HeLa cells (HIF-1α in HeLa cells): no upregulation of HIF-1α
